Data reported in PMC9250534, “Synthesis and direct assay of large macrocycle diversities by combinatorial late-stage modification at picomole scale” (Nature Communications, 2022).
Numbered stars: 1 amine (or outer) side, 2 acyl side, 3 side chain; on linkers, the order of the positions; unused ones are H or OH. Bridge positions count the residues as written; N and C are the ends. Square brackets hold non-standard residues; d marks the D form. Peptide text beside a SMILES is read from it. * marks the point of attachment. 2Thenoyl(5-Cl) = O=C(c1ccc(Cl)s1)*; Benzoyl(4-Cl) = O=C(c1ccc(Cl)cc1)*; Cysteamide = C(CS[*:3])N[*:1]; X1 = O=C(/C=C/c1ccccc1)*; Dap = NC[C@H](N)C(=O)O; Mpa = O=C(O)CCS

Target: MDM2 (Homo sapiens, UniProt Q00987)
Assay: MDM2 binding screen: displacement of fluorescent p53 peptide probe FP53 (fluorescence polarization)
Settings: crude macrocycle reactions; for fraction fluorescent probe displaced, Screen: initial screen
Method in brief: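 Single-point screen: one fluorescence anisotropy reading at 25 °C (485 nm excitation, 535 nm emission) per macrocycle. Crude macrocycle reactions, final 10 µM, were scored for displacing the fluorescent p53 peptide from human MDM2.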

MDM2, sequence (Q00987 whole entry): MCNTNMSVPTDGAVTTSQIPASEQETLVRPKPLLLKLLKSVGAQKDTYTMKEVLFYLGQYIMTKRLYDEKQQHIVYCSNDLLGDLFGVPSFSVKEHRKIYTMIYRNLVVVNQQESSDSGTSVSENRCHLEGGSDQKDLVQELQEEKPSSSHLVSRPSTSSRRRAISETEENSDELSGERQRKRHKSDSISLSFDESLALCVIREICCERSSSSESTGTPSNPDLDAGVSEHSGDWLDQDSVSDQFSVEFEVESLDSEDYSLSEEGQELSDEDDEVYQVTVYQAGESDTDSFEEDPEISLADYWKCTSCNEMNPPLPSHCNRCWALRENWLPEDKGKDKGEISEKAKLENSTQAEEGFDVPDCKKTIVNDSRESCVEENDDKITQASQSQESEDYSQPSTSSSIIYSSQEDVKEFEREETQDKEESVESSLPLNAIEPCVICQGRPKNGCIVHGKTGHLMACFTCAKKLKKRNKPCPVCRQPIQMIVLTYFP

| SMILES | fraction fluorescent probe displaced, Screen (Acid 91) | fraction fluorescent probe displaced, Replicate (Acid 91) | fraction fluorescent probe displaced, Screen (Acid 25) | fraction fluorescent probe displaced, Replicate (Acid 25) | also measured |
| --- | --- | --- | --- | --- | --- |
| O=C(/C=C/c1ccccc1)NC[C@@H]1NC(=O)c2cccc(c2)CNC(=O)CCSSCCNC(=O)[C@H](Cc2ccccc2)NC1=O [X B5 D3 F Acid 91] | -0.05 | 0.0168 | – | – | – |
| O=C1CCSSCCNC(=O)[C@H](Cc2c[nH]c3ccccc23)NC(=O)[C@H](CNC(=O)c2ccc(Cl)cc2)NC(=O)c2cccc(c2)CN1 [X B5 D3 W Acid 25] | – | – | 0.25 | 0.30 | – |
| O=C(C=Cc1ccccc1)NCC1NC(=O)c2cccc(c2)CNC(=O)CCSSCCNC(=O)C(Cc2c[nH]c3ccccc23)NC1=O (stereo not shown) [X B5 D3 W Acid 91] | 0.16 | 0.29 | – | – | – |
| O=C1CCSSCCNC(=O)C(Cc2ccccc2)NC(=O)C2CC(NC(=O)c3ccc(Cl)cc3)CN2C(=O)c2cccc(c2)CN1 (stereo not shown) [X B5 D5 F Acid 25] | – | – | 0.13 | 0.05 | – |
| O=C(C=Cc1ccccc1)NC1CC2C(=O)NC(Cc3c[nH]c4ccccc34)C(=O)NCCSSCCC(=O)NCc3cccc(c3)C(=O)N2C1 (stereo not shown) [X B5 D5 W Acid 91] | -0.13 | 0.0168 | – | – | – |
| O=C1CCSSCCNC(=O)C(Cc2ccccc2)NC(=O)C2(CCN(C(=O)c3ccc(Cl)s3)CC2)NC(=O)c2cccc(c2)CN1 (stereo not shown) [X B5 D6 F Acid 14] | – | – | – | – | fraction fluorescent probe displaced, Screen (Acid 14): -0.0116; fraction fluorescent probe displaced, Replicate (Acid 14): 0.05 |
| O=C1CCSSCCNC(=O)[C@H](Cc2ccccc2)NC(=O)C2(CCN(C(=O)c3ccc(Cl)cc3)CC2)NC(=O)c2cccc(c2)CN1 [X B5 D6 F Acid 25] | – | – | 0.0462 | 0.07 | – |
| O=C1CCSSCCNC(=O)C(Cc2ccccc2)NC(=O)C2(CCN(C(=O)C=Cc3ccccc3)CC2)NC(=O)c2cccc(c2)CN1 (stereo not shown) [X B5 D6 F Acid 91] | -0.10 | -0.08 | – | – | – |
| O=C1CCSSCCNC(=O)[C@H](Cc2c[nH]c3ccccc23)NC(=O)C2(CCN(C(=O)c3ccc(Cl)cc3)CC2)NC(=O)c2cccc(c2)CN1 [X B5 D6 W Acid 25] | – | – | 0.12 | 0.15 | – |
| O=C1CCSSCCNC(=O)C(Cc2c[nH]c3ccccc23)NC(=O)C2CN(C(=O)c3ccc(Cl)cc3)CCN2C(=O)c2cccc(c2)CN1 (stereo not shown) [X B5 D7 W Acid 25] | – | – | 0.09 | 0.15 | – |
| O=C1CCSSCCNC(=O)C(Cc2c[nH]c3ccccc23)NC(=O)C2CN(C(=O)C=Cc3ccccc3)CCN2C(=O)c2cccc(c2)CN1 (stereo not shown) [X B5 D7 W Acid 91] | -0.10 | -0.06 | – | – | – |
| O=C1CCSSCCNC(=O)[C@H](CNC(=O)c2ccc(Cl)s2)NC(=O)[C@H](Cc2ccccc2)NC(=O)c2cccc(c2)CN1 [X B5 F D3 Acid 14] | – | – | – | – | fraction fluorescent probe displaced, Screen (Acid 14): 0.053; fraction fluorescent probe displaced, Replicate (Acid 14): 0.0211 |
| O=C1CCSSCCNC(=O)[C@H](CNC(=O)c2ccc(Cl)cc2)NC(=O)[C@H](Cc2ccccc2)NC(=O)c2cccc(c2)CN1 [X B5 F D3 Acid 25] | – | – | 0.09 | 0.0465 | – |
| O=C(/C=C/c1ccccc1)NC[C@@H]1NC(=O)[C@H](Cc2ccccc2)NC(=O)c2cccc(c2)CNC(=O)CCSSCCNC1=O [X B5 F D3 Acid 91] | -0.05 | -0.00827 | – | – | – |
| O=C1CCSSCCNC(=O)[C@@H]2C[C@H](NC(=O)c3ccc(Cl)s3)CN2C(=O)[C@H](Cc2ccccc2)NC(=O)c2cccc(c2)CN1 [X B5 F D5 Acid 14] | – | – | – | – | fraction fluorescent probe displaced, Screen (Acid 14): 0.0241; fraction fluorescent probe displaced, Replicate (Acid 14): -0.00432 |
| O=C1CCSSCCNC(=O)[C@@H]2C[C@H](NC(=O)c3ccc(Cl)cc3)CN2C(=O)[C@H](Cc2ccccc2)NC(=O)c2cccc(c2)CN1 [X B5 F D5 Acid 25] | – | – | 0.0244 | 0.10 | – |
| O=C1CCSSCCNC(=O)C2(CCN(C(=O)c3ccc(Cl)s3)CC2)NC(=O)C(Cc2c[nH]c3ccccc23)NC(=O)c2cccc(c2)CN1 (stereo not shown) [X B5 W D6 Acid 14] | – | – | – | – | fraction fluorescent probe displaced, Screen (Acid 14): 0.20; fraction fluorescent probe displaced, Replicate (Acid 14): 0.33 |
| O=C1CCSSCCNC(=O)[C@H](Cc2ccccc2)NC(=O)[C@@H]2CCCN2C(=O)[C@H](CNC(=O)c2ccc(Cl)s2)N1 [X D3 B1 F Acid 14] ([Mpa][Dap](2Thenoyl(5-Cl))PF-Cysteamide; disulfide 1-C) | – | – | – | – | fraction fluorescent probe displaced, Screen (Acid 14): 0.11; fraction fluorescent probe displaced, Replicate (Acid 14): 0.07 |
| O=C1CCSSCCNC(=O)[C@H](Cc2c[nH]c3ccccc23)NC(=O)[C@@H]2CCCN2C(=O)[C@H](CNC(=O)c2ccc(Cl)s2)N1 [X D3 B1 W Acid 14] ([Mpa][Dap](2Thenoyl(5-Cl))PW-Cysteamide; disulfide 1-C) | – | – | – | – | fraction fluorescent probe displaced, Screen (Acid 14): 0.17; fraction fluorescent probe displaced, Replicate (Acid 14): 0.10 |
| O=C1CCSSCCNC(=O)[C@H](Cc2ccccc2)NC(=O)CCNC(=O)[C@H](CNC(=O)c2ccc(Cl)s2)N1 [X D3 B2 F Acid 14] | – | – | – | – | fraction fluorescent probe displaced, Screen (Acid 14): 0.17; fraction fluorescent probe displaced, Replicate (Acid 14): 0.10 |
| O=C1CCSSCCNC(=O)[C@H](Cc2c[nH]c3ccccc23)NC(=O)CCNC(=O)[C@H](CNC(=O)c2ccc(Cl)s2)N1 [X D3 B2 W Acid 14] | – | – | – | – | fraction fluorescent probe displaced, Screen (Acid 14): 0.17; fraction fluorescent probe displaced, Replicate (Acid 14): 0.25 |
| O=C1CCSSCCNC(=O)[C@H](Cc2ccccc2)NC(=O)[C@H]2CCCN(C2)C(=O)[C@H](CNC(=O)c2ccc(Cl)s2)N1 [X D3 B4 F Acid 14] | – | – | – | – | fraction fluorescent probe displaced, Screen (Acid 14): 0.0241; fraction fluorescent probe displaced, Replicate (Acid 14): 0.10 |

More lines, main results first:

| fraction fluorescent probe displaced, Screen (Acid 91) | fraction fluorescent probe displaced, Replicate (Acid 91) | fraction fluorescent probe displaced, Screen (Acid 25) | fraction fluorescent probe displaced, Replicate (Acid 25) | SMILES | also measured |
| --- | --- | --- | --- | --- | --- |
| – | – | 0.0244 | 0.0465 | O=C1CCSSCCNC(=O)C2(CCN(C(=O)c3ccc(Cl)cc3)CC2)NC(=O)C(Cc2ccccc2)NC(=O)c2cccc(c2)CN1 (stereo not shown) [X B5 F D6 Acid 25] | – |
| -0.05 | -0.06 | – | – | O=C1CCSSCCNC(=O)C2CN(C(=O)C=Cc3ccccc3)CCN2C(=O)C(Cc2ccccc2)NC(=O)c2cccc(c2)CN1 (stereo not shown) [X B5 F D7 Acid 91] | – |
| – | – | 0.15 | 0.12 | O=C1CCSSCCNC(=O)[C@H](CNC(=O)c2ccc(Cl)cc2)NC(=O)[C@H](Cc2c[nH]c3ccccc23)NC(=O)c2cccc(c2)CN1 [X B5 W D3 Acid 25] | – |
| 0.16 | 0.12 | – | – | O=C(/C=C/c1ccccc1)NC[C@@H]1NC(=O)[C@H](Cc2c[nH]c3ccccc23)NC(=O)c2cccc(c2)CNC(=O)CCSSCCNC1=O [X B5 W D3 Acid 91] | – |
| 0.00268 | 0.12 | – | – | O=C(C=Cc1ccccc1)NC1CC2C(=O)NCCSSCCC(=O)NCc3cccc(c3)C(=O)NC(Cc3c[nH]c4ccccc34)C(=O)N2C1 (stereo not shown) [X B5 W D5 Acid 91] | – |
| – | – | 0.09 | 0.28 | O=C1CCSSCCNC(=O)C2(CCN(C(=O)c3ccc(Cl)cc3)CC2)NC(=O)[C@H](Cc2c[nH]c3ccccc23)NC(=O)c2cccc(c2)CN1 [X B5 W D6 Acid 25] | – |
| 0.16 | 0.17 | – | – | O=C1CCSSCCNC(=O)C2(CCN(C(=O)/C=C/c3ccccc3)CC2)NC(=O)[C@H](Cc2c[nH]c3ccccc23)NC(=O)c2cccc(c2)CN1 [X B5 W D6 Acid 91] | – |
| – | – | 0.12 | 0.07 | O=C1CCSSCCNC(=O)C2CN(C(=O)c3ccc(Cl)cc3)CCN2C(=O)C(Cc2c[nH]c3ccccc23)NC(=O)c2cccc(c2)CN1 (stereo not shown) [X B5 W D7 Acid 25] | – |
| 0.03 | -0.00827 | – | – | O=C1CCSSCCNC(=O)C2CN(C(=O)C=Cc3ccccc3)CCN2C(=O)C(Cc2c[nH]c3ccccc23)NC(=O)c2cccc(c2)CN1 (stereo not shown) [X B5 W D7 Acid 91] | – |
| – | – | 0.15 | 0.12 | O=C1CCSSCCNC(=O)[C@H](Cc2ccccc2)NC(=O)[C@@H]2CCCN2C(=O)[C@H](CNC(=O)c2ccc(Cl)cc2)N1 [X D3 B1 F Acid 25] ([Mpa][Dap](Benzoyl(4-Cl))PF-Cysteamide; disulfide 1-C) | – |
| 0.00268 | -0.00827 | – | – | O=C(/C=C/c1ccccc1)NC[C@@H]1NC(=O)CCSSCCNC(=O)[C@H](Cc2ccccc2)NC(=O)[C@@H]2CCCN2C1=O [X D3 B1 F Acid 91] ([Mpa][Dap](X1)PF-Cysteamide; disulfide 1-C) | – |
| – | – | 0.28 | 0.15 | O=C1CCSSCCNC(=O)[C@H](Cc2c[nH]c3ccccc23)NC(=O)[C@@H]2CCCN2C(=O)[C@H](CNC(=O)c2ccc(Cl)cc2)N1 [X D3 B1 W Acid 25] ([Mpa][Dap](Benzoyl(4-Cl))PW-Cysteamide; disulfide 1-C) | – |
| -0.0241 | 0.04 | – | – | O=C(/C=C/c1ccccc1)NC[C@@H]1NC(=O)CCSSCCNC(=O)[C@H](Cc2c[nH]c3ccccc23)NC(=O)[C@@H]2CCCN2C1=O [X D3 B1 W Acid 91] ([Mpa][Dap](X1)PW-Cysteamide; disulfide 1-C) | – |
| 0.08 | 0.04 | – | – | O=C(/C=C/c1ccccc1)NC[C@@H]1NC(=O)CCSSCCNC(=O)[C@H](Cc2ccccc2)NC(=O)CCNC1=O [X D3 B2 F Acid 91] | – |
| – | – | 0.12 | 0.0465 | O=C1CCSSCCNC(=O)[C@H](Cc2c[nH]c3ccccc23)NC(=O)CCNC(=O)[C@H](CNC(=O)c2ccc(Cl)cc2)N1 [X D3 B2 W Acid 25] | – |
| 0.11 | -0.0333 | – | – | O=C(C=Cc1ccccc1)NCC1NC(=O)CCSSCCNC(=O)C(Cc2c[nH]c3ccccc23)NC(=O)CCNC1=O (stereo not shown) [X D3 B2 W Acid 91] | – |
